Literature values, collected in patent US5498598A, “Composition for nasal administration of desmopressin” (Ferring AB, priority 1995, dated 1996).

Details: in vivo

- absorption of a given amount in larger volume versus the same amount in smaller volume: absorbed substantially less effectively
SMILES: NC(=O)CC[C@@H]1NC(=O)[C@H](Cc2ccccc2)NC(=O)[C@H](Cc2ccc(O)cc2)NC(=O)CCSSC[C@@H](C(=O)N2CCC[C@H]2C(=O)N[C@H](CCCN=C(N)N)C(=O)NCC(N)=O)NC(=O)[C@H](CC(N)=O)NC1=O [desmopressin, 1-(3-mercaptopropionic acid)-8-D-arginine-vasopressin]
